Assays:
U-87 MG = assay: Antiproliferative activity against human U87 MG cell line; type: functional, cell-based, U-87MG ATCC
B16 = assay: Antiproliferative activity against mouse B16 cell line; type: functional, cell-based
HeLa = assay: Antiproliferative activity against human HeLa cell line; type: functional, cell-based
DLD-1 = assay: Antiproliferative activity against human DLD1 cell line; type: functional, cell-based
SiHa = assay: Antiproliferative activity against human SiHa cell line; type: functional, cell-based
NIH3T3 = assay: Antiproliferative activity against mouse NIH3T3 cell line; type: functional, cell-based
HUVEC = assay: Antiproliferative activity against HUVEC cell line; type: functional, cell-based; settings: Homo sapiens

| SMILES | IC50 (U-87 MG) [µM] | IC50 (B16) [µM] | IC50 (HeLa) [µM] | IC50 (DLD-1; read-out: IC50) [µM] | IC50 (SiHa) [µM] | IC50 (NIH3T3) [µM] | IC50 (HUVEC) [µM] | IC50 (DLD-1) [µM] |
| --- | --- | --- | --- | --- | --- | --- | --- | --- |
| CCN(CC)c1ccc2cc(-c3nc4ccccc4s3)c(=O)oc2c1 | > 70 | > 70 | > 70 | > 70 | > 70 | > 70 | > 70 | – |
| O=Cc1cc2c3c(c1O)CCCN3CCC2 | > 70 | > 70 | > 70 | > 70 | > 70 | > 70 | 35.4 | – |
| O=c1oc2c3c4c(cc2cc1-c1nc2ccccc2[nH]1)CCCN4CCC3 | 33.4 | 8.9 | 11.6 | 35.2 | 14.6 | 41.4 | 3.3 | – |
| CCN(CC)c1ccc2c(C#N)c(-c3nc4ccccc4s3)c(=O)oc2c1 | > 70 | > 70 | > 70 | > 70 | > 70 | > 70 | 4.8 | – |
| O=c1oc2c3c4c(cc2cc1[N+](=O)[O-])CCCN4CCC3 | > 70 | > 70 | > 70 | > 70 | > 70 | > 70 | > 70 | – |
| CCN(CC)c1ccc2cc(-c3nc4ccccc4[nH]3)c(=O)oc2c1 | 15 | 12.6 | > 70 | > 70 | 62.1 | 9.3 | 9.6 | – |
| CCN(CC)c1ccc2cc(C(C)=O)c(=O)oc2c1 | > 70 | > 70 | > 70 | > 70 | > 70 | > 70 | > 70 | – |
| CC(=O)O[C@H]1C(=O)[C@@]2(C)[C@H]([C@H](OC(=O)c3ccccc3)[C@]3(O)C[C@H](OC(=O)[C@H](O)[C@@H](NC(=O)c4ccccc4)c4ccccc4)C(C)=C1C3(C)C)[C@]1(OC(C)=O)CO[C@@H]1C[C@@H]2O [PACLITAXEL] | 0.08 | 0.08 | 0.47 | – | 3.5 | 1.29 | 0.06 | 0.09 |
